Results as given in paper doi:10.1101/2024.07.29.605666v2, “Effects of two different compounds on seizure suppression using the zebrafish PTZ-seizure model” (bioRxiv, 2024).

Tests used:
Assay type in all cases: in vivo, zebrafish (Danio rerio)
[1] = tested on: il1b; assay: RT-qPCR of il1b transcript in larval heads after PTZ-induced seizures; conditions: tripeptide 24 h, then 15 mM PTZ 20 min; significant effects at 10 and 5 μg/mL; n = 5 pools of five heads; vs PTZ group
Description: (§1) For all compounds, zebrafish larvae at 6 days post-fertilization (dpf) were randomly placed into Petri dishes, each one containing 25 larvae. The larvae were incubated in the respective solutions and concentrations for 24h (as specified in Table 1) prior to seizure induction. The temperature and photoperiod conditions were consistent with those described for the adult zebrafish. The study groups consisted of the Control Group (CG), PTZ Group (PTZ), Treatment 1, Treatment 2, and Treatment 3. Treatments 1 to 3 employed the previously determined concentrations mentioned above.
(§2) Seizure induction followed the pretreatment of the compounds. […]
(§3) Immediately after PTZ exposure, fish were cryo-anesthetized and their heads were cut, collected, and then incubated in TRIzol® (Invitrogen, Carlsbad, CA, USA). […] The concentration and quality were determined using the Epoch™ spectrophotometer (BioTek, Winooski, VT, USA) and gel electrophoresis.
(§4) The synthesis of cDNA was carried out using the High-Capacity cDNA Reverse Transcription kit (Applied Biosystems™, Califórnia, USA) following the manufacturer’s instructions. Quantitative PCR (qPCR) was performed using the SYBR ® Green Master Mix reagent (Bio-Rad) using the ABI 7500 system (Applied Biosystems, Foster City, CA, USA). […] Data were evaluated using 7500 software v2.03 (Applied Biosystems). […]

[2] = tested on: casp9; assay: RT-qPCR of casp9 transcript in larval heads after PTZ-induced seizures; conditions: tripeptide 24 h, then 15 mM PTZ 20 min; significant effects at 10 and 5 μg/mL; n = 5 pools of five heads; vs PTZ group
Description: as §1, §2, §3, §4

[3] = tested on: baxa; assay: RT-qPCR of baxa transcript in larval heads after PTZ-induced seizures; conditions: tripeptide 10 μg/mL 24 h, then 15 mM PTZ 20 min; no statistical difference detected; n = 5
Description: as §1, §2, §3, §4

[4] = tested on: zebrafish larvae; assay: PTZ-induced seizure behaviour (latency and number of seizures) after 24 h compound pretreatment; conditions: tripeptide 25, 10 and 5 μg/mL, 24 h pretreatment, then 15 mM PTZ, 10 min visual observation; vs PTZ group
Description: as §1
Seizure induction followed the pretreatment of the compounds. Larvae with 7 dpf were carefully transferred to a 96-well plate filled with 100 μL of aquarium water, with one larva per well. Subsequently, 100 μL of 30 mM of the proconvulsant agent pentylenetetrazol (PTZ) (Sigma-Aldrich, St. Louis, MO, USA) was added to each well, resulting in a final concentration of 15 mM of PTZ. The larvae were exposed to PTZ for 20 minutes. The control group underwent the same procedure but in PTZ-free water.
The latency and number of seizures were monitored through visual observation, following the method described by Barbalho et al., 2016a. […] Larvae were evaluated for 10 minutes of PTZ exposure, and a complete seizure was considered when they reached stage 3.

[5] = tested on: casp3a; assay: RT-qPCR of casp3a transcript in larval heads after PTZ-induced seizures; conditions: tripeptide 10 μg/mL 24 h, then 15 mM PTZ 20 min; no statistical difference detected; n = 5
Description: as §1, §2, §3, §4

[6] = tested on: bcl2a; assay: RT-qPCR of bcl2a transcript in larval heads after PTZ-induced seizures; conditions: tripeptide 10 μg/mL 24 h, then 15 mM PTZ 20 min; no statistical difference detected; n = 5
Description: as §1, §2, §3, §4

With Glu-Val-Trp [Tripeptide] the “il1b gene expression (RQ = 2-ΔΔCT)” value [1] was “downregulation”, the “casp9 gene expression (RQ = 2-ΔΔCT)” value [2] was “downregulation” and the “baxa gene expression (RQ = 2-ΔΔCT)” value [3] was “roughly equivalent to or slightly higher than those of the PTZ group”. The number of seizures [4] was “No statistical significance was found”, the “seizure latency (time to stage 3 seizure-like activity)” value [4] was “No statistical significance was found” and the “casp3a gene expression (RQ = 2-ΔΔCT)” value [5] was “roughly equivalent to or slightly higher than those of the PTZ group”. For the same substance, the “bcl2a gene expression (RQ = 2-ΔΔCT)” value [6] was “roughly equivalent to or slightly higher than those of the PTZ group”.
